Where “and” joins values, the source holds several entries; their conditions need not be identical. Identical values can stand only once.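 Test compounds were applied to cells in 96-well plates for 48 hours at 5 doses. The concentration for 50% growth inhibition is given as GI50. TGI is the concentration that stops growth completely.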
Assays:
Experiment in all cases: DTP human tumour cell line panel, 48 h
U251 CNS = test system: U251 CNS
SK-MEL-2 melanoma = test system: SK-MEL-2 melanoma
LOX IMVI melanoma = test system: LOX IMVI melanoma
OVCAR-5 ovarian = test system: OVCAR-5 ovarian
UO-31 renal = test system: UO-31 renal
CCRF-CEM leukemia = test system: CCRF-CEM leukemia
HCT-116 colon = test system: HCT-116 colon
SNB-75 CNS = test system: SNB-75 CNS
SNB-19 CNS = test system: SNB-19 CNS
SK-OV-3 ovarian = test system: SK-OV-3 ovarian

Row | Compound | TGI (U251 CNS) | TGI (SK-MEL-2 melanoma) | TGI (LOX IMVI melanoma) | TGI (OVCAR-5 ovarian) | TGI (UO-31 renal) | TGI (CCRF-CEM leukemia) | TGI (HCT-116 colon) | TGI (SNB-75 CNS) | TGI (SNB-19 CNS) | TGI (SK-OV-3 ovarian) | GI50 (SK-MEL-2 melanoma) | GI50 (UO-31 renal) | GI50 (U251 CNS) | GI50 (LOX IMVI melanoma) | GI50 (OVCAR-5 ovarian) | GI50 (CCRF-CEM leukemia) | GI50 (HCT-116 colon) | GI50 (SNB-75 CNS) | GI50 (SNB-19 CNS) | GI50 (SK-OV-3 ovarian)
1 | O=c1[nH]c2c3ccccc3ccc2c2cc3c(cc12)OCO3 | > 100 µM | > 100 µM | > 100 µM | > 100 µM | > 100 µM | > 100 µM | > 100 µM | > 100 µM | > 100 µM | > 100 µM | – | – | – | – | – | – | – | – | – | –
2 | Cc1ccc(NC(=O)CC(=O)n2nc(-c3ccccc3)c(N=Nc3ccccc3Cl)c2-c2ccccc2)cc1 | > 100 µM | > 100 µM | > 100 µM | > 100 µM | > 100 µM | > 100 µM | > 100 µM | 42.1 µM | > 100 µM | 60.5 µM | > 100 µM | > 100 µM | – | – | – | – | – | – | – | –
3 | O=C(Nc1ccc(F)cc1F)c1cc(Br)ccc1O | > 100 µM | 6.74 µM | 21.2 µM | > 100 µM | 6.01 µM | 69.3 µM | 8.45 µM | 3.73 µM | > 100 µM | 3.5 µM | 2.3 µM | 1.43 µM | 2.78 µM | 2.91 µM | 3.83 µM | 3.71 µM | 2.47 µM | 0.558 µM | 2.75 µM | 0.53 µM
4 | NC1CCCCC1N.O=S(=O)([O-])CCCN1CCOCC1.O=S(=O)([O-])CCCN1CCOCC1.[Pt+4] | > 100 µM | 44.5 µM | > 59.2 µM | > 100 µM | > 100 µM | 58.7 µM | > 100 µM | > 100 µM | > 100 µM | > 100 µM | 13.3 µM | 19.3 µM | 13.7 µM | 16.2 µM | 26 µM | 5.16 µM | 4.2 µM | > 100 µM | 25.7 µM | > 100 µM
5 | CC1(C)CC(n2cnc(-c3ccc(F)cc3)c2-c2ccnc(N)n2)CC(C)(C)N1 | > 25 µM | > 25 µM | > 25 µM | > 25 µM | > 25 µM | > 25 µM | > 25 µM | > 25 µM | > 25 µM | > 25 µM | > 25 µM | 16.6 µM | > 20.1 µM | > 19.7 µM | 24.4 µM | > 25 µM | 15.1 µM | > 16.5 µM | > 25 µM | 23.6 µM
6 | Cc1cccc(C)c1NC(=O)CCc1nnc2s/c(=C\c3ccc(Cl)cc3)c(=O)n12 | > 100 µM | > 100 µM | > 100 µM | > 100 µM | > 100 µM | > 100 µM | 57.2 µM | > 100 µM | > 100 µM | > 100 µM | – | – | – | – | – | – | – | – | – | –
7 | NC(=N\N=C/c1cccc([N+](=O)[O-])c1)/C(N)=N\N=C/c1cccc([N+](=O)[O-])c1 | > 100 µM | > 100 µM | > 100 µM | > 100 µM | > 100 µM | > 100 µM | > 100 µM | > 100 µM | > 100 µM | > 100 µM | > 100 µM | > 100 µM | > 100 µM | > 100 µM | > 100 µM | > 100 µM | > 100 µM | > 100 µM | > 100 µM | > 100 µM
8 | C[C@]12CC[C@H](OCCC#N)CC1=CC[C@@H]1C2CC[C@]2(C)/C(=N/OCCC#N)CCC12 (some centres not stated) | > 100 µM | > 100 µM | > 100 µM | > 100 µM | > 100 µM | > 100 µM | > 100 µM | > 78.9 µM | 97.9 µM | > 100 µM | – | – | – | – | – | – | – | – | – | –
9 | Cc1cc(-c2nnc(N)nc2-c2ccc(F)cc2)cc(Cl)n1 | > 100 µM | > 100 µM | > 100 µM | > 100 µM | > 100 µM | > 100 µM | > 100 µM | > 100 µM | > 100 µM | > 100 µM | > 100 µM | 24.3 µM | > 100 µM | > 100 µM | > 100 µM | 93.1 µM | 75.4 µM | 54.3 µM | > 100 µM | > 100 µM
10 | C=CCN1C=CC(=O)[C@H](O[Si](C)(C)C(C)(C)C)[C@@H]1/C=C/c1ccccc1 | 25.2 µM | 34.2 µM | 26.4 µM | 31.9 µM | 25.1 µM | 40.1 µM | 19.9 µM | 22.7 µM | 35.3 µM | 28.6 µM | 17 µM | 9.19 µM | 12.4 µM | 13.1 µM | 17.5 µM | 15.2 µM | 6.96 µM | 10.5 µM | 20.7 µM | 14.9 µM
11 | Cc1occc1C(=S)Nc1ccc(Cl)c(/C=N/OC(C)C)c1 | > 53.7 µM | 43.8 µM | 31.1 µM | 49.4 µM | 42.8 µM | 44.4 µM | > 51.7 µM | 72.7 µM | > 67.4 µM | > 56.7 µM | – | – | – | – | – | – | – | – | – | –
12 | CCOC(=O)NC(=O)c1cn(CCCOC(=O)CCCCCCCCCCC(=O)OCCCn2cc(C(=O)NC(=O)OCC)c(=O)n(C)c2=O)c(=O)n(C)c1=O | > 100 µM | > 100 µM | > 100 µM | > 100 µM | > 100 µM | > 100 µM | > 100 µM | > 100 µM | > 100 µM | > 100 µM | – | – | – | – | – | – | – | – | – | –
13 | O=C1c2ccccc2C2(O)NC(=S)N(c3ccccc3)C12O (configuration not stated) | > 100 µM | > 100 µM | > 100 µM | > 100 µM | > 100 µM | > 100 µM | > 100 µM | > 100 µM | > 100 µM | > 100 µM | – | – | – | – | – | – | – | – | – | –
14 | C=C1C(=O)[C@@]23CC1C(O)[C@@H](OC(C)=O)[C@@H]2C1(C)C(OC(C)=O)C[C@@H](OC(C)=O)C(C)(C)[C@@H]1C[C@H]3OC(C)=O (some centres not stated) | > 10 µM and 27 µg/mL | > 10 µM and 5.65 µg/mL | > 10 µM and 3.31 µg/mL | > 10 µM and 16 µg/mL | > 10 µM and 16.3 µg/mL | 1.9 µM and 5.21 µg/mL | 2.98 µM and 2.89 µg/mL | > 10 µM and 20.5 µg/mL | > 10 µM and 31.1 µg/mL | > 10 µM and 30.2 µg/mL | > 10 µM and 2.46 µg/mL | > 10 µM and 6.65 µg/mL | > 10 µM and 13.9 µg/mL | 1.82 µg/mL | > 10 µM and 7.32 µg/mL | 361 nM and 0.239 µg/mL | 1.45 µM and 1.46 µg/mL | > 10 µM and 7.25 µg/mL | > 10 µM and 17.2 µg/mL | > 10 µM and 16.5 µg/mL
